Laboratory results reported in US9034574B2, “Agents for reversing epigenetic silencing of genes” (The Johns Hopkins University, priority 2006, dated 2015).
Where two headings read alike, the source gives them in different places.

Key:
[1] = target: MeCP2_MBD binding to 5-mCpG containing DNA (Homo sapiens (Human), UniProt P51608); assay: DNA-protein binding assay, MeCP2_MBD to methylated oligonucleotide; settings: His-tagged MeCP2_MBD, read-out: MeCP2 Binding Inhibition (IC50 in μM)
Method: (§1) To determine if the “lead” compounds directly interfere with MBD2 binding to ^5−m CpG containing DNA, each “lead” compound is tested for its ability to inhibit such binding using a DNA-protein binding assay. For this assay, a biotinylated and methylated oligonucleotide substrate is bound to a neutravidin-coated high binding capacity 96-well plate. His-tagged MBD2_MBD or MeCP2_MBD binds to the methylated oligonucleotide. An Anti-His-HRP conjugated antibody is used to detect bound protein. Introducing the “lead” compounds into the reaction mix at various concentrations provides a MBD2_MBD-DNA binding curve from which an IC50 is derived.
(§2) DNA binding assays using recombinant MBDs. […] After centrifugation in a microfuge, the soluble protein fraction, containing MBD2, was recovered. A similar approach was used for producing cloned recombinant MeCP2. […] After washing four times with binding buffer and drying wells, TMB is added to each well followed by 1 N HCl, and A450 is measured on a microplate reader. The IC50 for each “lead” compound is derived from the DNA-protein binding curve.

[2] = target: recombinant DNMT1 (Homo sapiens (Human), UniProt P26358); assay: DNA methyltransferase activity assay with recombinant DNMT1; assay type: biochemical; settings: for DNMT1 Inhibition (IC50 in μM): recombinant DNMT1
Sequence of recombinant DNMT1 (P26358 whole entry): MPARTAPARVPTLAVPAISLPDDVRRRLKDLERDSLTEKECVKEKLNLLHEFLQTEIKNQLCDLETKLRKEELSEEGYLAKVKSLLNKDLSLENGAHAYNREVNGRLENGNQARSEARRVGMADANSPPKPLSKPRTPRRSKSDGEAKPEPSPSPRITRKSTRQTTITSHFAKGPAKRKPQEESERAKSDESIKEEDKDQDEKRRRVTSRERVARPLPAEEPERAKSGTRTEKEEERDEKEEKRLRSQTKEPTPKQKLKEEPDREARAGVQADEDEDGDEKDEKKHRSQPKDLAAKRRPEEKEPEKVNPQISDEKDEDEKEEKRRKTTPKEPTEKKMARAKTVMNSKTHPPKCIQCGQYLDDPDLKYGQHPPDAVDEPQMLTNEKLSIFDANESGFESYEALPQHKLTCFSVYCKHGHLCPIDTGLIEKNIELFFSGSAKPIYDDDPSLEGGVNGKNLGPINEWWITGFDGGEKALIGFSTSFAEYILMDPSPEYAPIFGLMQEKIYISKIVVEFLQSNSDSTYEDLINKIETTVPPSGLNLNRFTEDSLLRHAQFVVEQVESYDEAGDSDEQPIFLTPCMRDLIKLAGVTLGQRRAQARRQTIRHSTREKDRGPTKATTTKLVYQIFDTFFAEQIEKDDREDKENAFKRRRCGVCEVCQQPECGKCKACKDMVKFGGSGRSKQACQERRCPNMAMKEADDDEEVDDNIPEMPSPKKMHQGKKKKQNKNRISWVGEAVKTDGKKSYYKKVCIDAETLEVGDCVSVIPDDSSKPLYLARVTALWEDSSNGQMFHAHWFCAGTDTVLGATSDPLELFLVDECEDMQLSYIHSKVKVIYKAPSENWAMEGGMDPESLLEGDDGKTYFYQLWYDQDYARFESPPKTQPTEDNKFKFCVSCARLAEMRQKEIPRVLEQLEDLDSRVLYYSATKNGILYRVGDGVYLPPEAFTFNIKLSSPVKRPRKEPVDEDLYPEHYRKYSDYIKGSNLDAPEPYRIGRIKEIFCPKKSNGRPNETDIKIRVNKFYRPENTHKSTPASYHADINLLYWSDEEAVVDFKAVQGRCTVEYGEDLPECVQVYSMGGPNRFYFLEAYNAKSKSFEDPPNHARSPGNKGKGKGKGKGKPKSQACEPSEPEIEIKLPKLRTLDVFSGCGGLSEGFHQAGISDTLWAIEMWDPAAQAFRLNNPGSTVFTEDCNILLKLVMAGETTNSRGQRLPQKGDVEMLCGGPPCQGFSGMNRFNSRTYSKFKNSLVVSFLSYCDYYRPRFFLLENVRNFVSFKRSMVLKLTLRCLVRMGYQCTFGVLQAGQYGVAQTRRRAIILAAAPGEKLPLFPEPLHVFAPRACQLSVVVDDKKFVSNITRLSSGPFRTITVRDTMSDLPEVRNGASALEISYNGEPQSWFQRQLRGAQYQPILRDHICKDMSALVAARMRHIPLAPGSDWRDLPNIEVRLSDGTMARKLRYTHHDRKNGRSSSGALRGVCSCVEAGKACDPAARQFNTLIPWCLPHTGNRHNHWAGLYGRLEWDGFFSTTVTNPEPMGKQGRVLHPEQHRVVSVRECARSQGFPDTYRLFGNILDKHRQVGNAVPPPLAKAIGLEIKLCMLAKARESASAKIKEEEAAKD
Text: (§3) The outputs of these experiments were Ki's for each of the DNMT enzymes. When considered along with potency and efficacy data from the screening assays, the results of analyses of “lead” compounds for interference with MBD2 binding to ^5−m CpG-containing DNA, for direct binding to ^5−mCpG-containing DNA, and for inhibition of DNMTs allow prioritization of “lead” compounds. Ideally, “lead” compounds that activate expression from GSTP1 alleles with CpG island hypermethylation at sub-μM concentrations, target MBD2 directly, and fail to inhibit DNMTs, are high-priority “lead” compounds.
DNMT assays using recombinant DNMT1, DNMT3a, and DNMT3b. To produce recombinant DNMT1, full-length DNMT1 cDNA was amplified in two segments by RT-PCR from human brain poly A+ RNA (BD Clontech). Amplification of the upstream segment was performed using the PCR primers (5′-[…]-3′ (SEQ ID NO:4) and 5′-[…]-3′ (SEQ ID NO:5)), and amplification of the downstream segment was performed using the PCR primers (5′-[…]-3′ (SEQ ID NO:6) and 5′-[…]-3′ (SEQ ID NO:7)). The upstream and downstream segments were subcloned into the pCMVscript® vector (Stratagene), and assembled using an internal BstEII site that is common to both segments to create pCMVscript-DNMT1. PCR primers containing EcoRI and KpnI sites (5′-GAATTCCCGGCGCGTACCG-3′ (SEQ ID NO:8) and 5′-[…]-3′ (SEQ ID NO:9)) were used to amplify the DNMT1 coding sequence from pCMVscript-DNMT1. […] This pFB6H-DNMT1 construct was used to transform DH10Bac™ E. coli competent cells (Invitrogen) to generate a recombinant expression bacmid via site-specific transposition. The DNMT1 expression bacmid was transfected into Sf9 insect cells to produce recombinant DNMT1 baculovirus particles, which were subsequently used to infect additional Sf9 cells (1 MOI, 48 hours) for protein production. Recombinant His(6)-(SEQ ID NO:21)-DNMT1 was recovered by Ni2+ affinity chromatography. After lysis in 50 mM Na2HPO4 pH 7.6, 10 mM imidazole, 500 mM NaCl, 1% Igepal CA-630, 10% glycerol, and 1× Complete™ Protease Inhibitor (Roche) by two freeze-thaw cycles, His(6)-(SEQ ID NO:21)-DNMT1 was bound to Ni-NTA agarose (Qiagen) for 1.5 hours at 4° C. The supernatant was removed, and the beads were washed twice with 50 mM Na2HPO4 pH 7.6, 20 mM imidazole, 500 mM NaCl, 10% glycerol, and 1× Complete™ Protease Inhibitor to remove contaminating proteins. The beads were then washed twice with 50 mM Na2HPO4 pH 7.6, 10 mM NaCl, 10% glycerol, and 1× Complete™ Protease Inhibitor to remove excess salt. His(6)-(SEQ ID NO:21)-DNMT1 was eluted from the Ni-NTA agarose by adding 50 mM Na2HPO4 pH 7.6, 250 mM imidazole, 10 mM NaCl, 10% glycerol, and 1× Complete™ Protease Inhibitor. Spin dialysis was used to concentrate the protein and exchange the buffer 50 mM Na2HPO4 pH 7.6, 10 mM NaCl, 1 mM EDTA, 1 mM DTT, 20% glycerol, and 1× Complete™ Protease Inhibitor. Protein concentration was determined using the BCA assay (Pierce). Recombinant DNMT1 was stored at −80° C. until further use.
DNA methyltransferase activity assays were performed by combining 100 nM His(6)-(SEQ ID NO:21)-DNMT with 5′-biotinylated synthetic hemi-methylated or unmethylated oligonucleotide substrate containing 1 μM CG (Top Strand 5′-[…]-3′ (SEQ ID NO:18), Bottom Strand 5′-[…]-3′ (SEQ ID NO:19)) and 1 μM S-adenosyl-L-[methyl-^3H]Methionine™ (Amersham TRK581 60-85 Ci/mmol). After incubation at 37° C. for 30 minutes, reactions were stopped by adding one volume of 10 mM cold S-adenosyl-L-Methionine™ (Sigma). To purify the oligonucleotides, reactions will be added to a SAm^2® 96 Biotin Capture Plate (Promega). The plate was washed 7 times with PBS+2M NaCl and 3 times with dH20 to remove His(6)-(SEQ ID NO:21)-DNMT1 and S-adenosyl-L-methionine.

[3] = target: recombinant DNMT3a (Homo sapiens (Human), UniProt Q9Y6K1); assay: DNA methyltransferase activity assay with recombinant DNMT3a; assay type: biochemical; settings: read-out: Ki for inhibition of DNMT3a
Sequence of recombinant DNMT3a (Q9Y6K1 whole entry, looked up): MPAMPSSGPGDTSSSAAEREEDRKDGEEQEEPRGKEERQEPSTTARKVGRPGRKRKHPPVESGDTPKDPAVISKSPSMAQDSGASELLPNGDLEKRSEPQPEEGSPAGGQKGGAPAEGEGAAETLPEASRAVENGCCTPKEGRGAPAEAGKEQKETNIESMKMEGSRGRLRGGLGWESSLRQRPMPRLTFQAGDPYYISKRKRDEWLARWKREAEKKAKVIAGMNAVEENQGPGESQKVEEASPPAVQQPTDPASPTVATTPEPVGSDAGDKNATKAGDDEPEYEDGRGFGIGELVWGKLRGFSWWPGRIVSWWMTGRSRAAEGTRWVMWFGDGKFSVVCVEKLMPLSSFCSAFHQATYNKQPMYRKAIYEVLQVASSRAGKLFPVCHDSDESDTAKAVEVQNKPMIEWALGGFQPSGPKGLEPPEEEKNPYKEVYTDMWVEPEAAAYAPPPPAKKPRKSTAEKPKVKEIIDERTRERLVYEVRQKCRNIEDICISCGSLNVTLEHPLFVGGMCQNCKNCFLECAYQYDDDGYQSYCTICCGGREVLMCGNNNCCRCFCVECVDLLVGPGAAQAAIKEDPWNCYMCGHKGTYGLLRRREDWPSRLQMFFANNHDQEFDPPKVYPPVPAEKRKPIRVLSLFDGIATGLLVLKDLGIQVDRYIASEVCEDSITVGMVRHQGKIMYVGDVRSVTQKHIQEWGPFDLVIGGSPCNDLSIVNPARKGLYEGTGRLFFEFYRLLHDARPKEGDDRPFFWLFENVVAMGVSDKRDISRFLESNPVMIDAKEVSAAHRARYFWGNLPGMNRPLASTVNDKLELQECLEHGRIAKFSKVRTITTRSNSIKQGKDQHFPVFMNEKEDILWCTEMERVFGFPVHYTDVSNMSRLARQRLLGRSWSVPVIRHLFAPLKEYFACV
Text: as §3
His(6)-(SEQ ID NO:21)-DNMT3a and His(6)-(SEQ ID NO:21)-DNM3b2 were expressed and purified in Sf9 cells as described above with the following modifications. […]
DNA methyltransferase activity assays were performed by combining 100 nM His(6)-(SEQ ID NO:21)-DNMT with 5′-biotinylated synthetic hemi-methylated or unmethylated oligonucleotide substrate containing 1 μM CG (Top Strand 5′-[…]-3′ (SEQ ID NO:18), Bottom Strand 5′-[…]-3′ (SEQ ID NO:19)) and 1 μM S-adenosyl-L-[methyl-^3H]Methionine™ (Amersham TRK581 60-85 Ci/mmol). […] After drying the plate, 30 μl Microscint-PS™ scintillation fluid (Packard) was added to each well, and tritium was quantitated using the TopCount™ NXT liquid scintillation counter (Packard). […]

[4] = target: MBD2_MBD binding to 5-mCpG containing DNA (Homo sapiens (Human), UniProt Q9UBB5); assay: DNA-protein binding assay, MBD2_MBD to methylated oligonucleotide; settings: His-tagged MBD2_MBD
Sequence of MBD2_MBD binding to 5-mCpG containing DNA (Q9UBB5 145-213): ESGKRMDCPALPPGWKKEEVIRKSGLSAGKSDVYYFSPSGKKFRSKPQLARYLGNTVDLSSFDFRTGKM
Method: as §1, §2

[5] = tested on: melanoma; settings: cited from earlier work
[6] = tested on: mesothelioma; settings: cited from earlier work
[7] = tested on: ovarian ca; settings: cited from earlier work
[8] = tested on: lung ca; settings: n 15, 200-600 mg/M^2 over 1 day iv; cited from earlier work
[9] = tested on: prostate ca; settings: n 14, 225 mg/M^2 over 1 day iv; cited from earlier work
[10] = tested on: colon ca; settings: cited from earlier work
[11] = tested on: breast ca; settings: cited from earlier work
[12] = n 4, 275-850 mg/M^2 over 10 days sq

Sequence of MeCP2_MBD binding to 5-mCpG containing DNA (P51608 90-162): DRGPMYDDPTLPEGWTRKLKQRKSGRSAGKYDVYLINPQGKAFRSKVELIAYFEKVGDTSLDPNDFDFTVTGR

## Oc1cccc(Nc2nc(-c3ccccn3)cs2)c1 [(II)]
[1]
  IC50: > 200 µM
[2]
  DNMT1 Inhibition (IC50 in μM): No Inhibition

## COc1ccccc1-c1nc(-c2cccc([N+](=O)[O-])c2)no1 [(X)]
[1]
  IC50: > 200 µM
[2]
  DNMT1 Inhibition (IC50 in μM): No Inhibition

## CCN(CC)CCNC(=O)c1ccc(N)cc1 [procainamide, reference compound]
[3]
  Ki: 1400 µM
[2]; mixed mechanism, read-out: Ki for inhibition of DNMT1
  Ki: 7.2 µM

## Nc1cccc(-c2nnc(-c3ccccc3)o2)c1 [(XXIII)]
[1]
  IC50: 8.59 µM
[2]
  DNMT1 Inhibition (IC50 in μM): No Inhibition

## COc1ccc([N+](=O)[O-])cc1C1NN=C(c2ccccc2)S1 (stereo not drawn) [(XIX)]
[4]
  MBD2 Binding Inhibition (IC50 in μM): In- conclusive
[2]
  DNMT1 Inhibition (IC50 in μM): No Inhibition

## c1ccc(Nc2nc(-c3ccccn3)cs2)nc1 [(I)]
[1]
  IC50: 10.5 µM

## NC1=NCN([C@@H]2O[C@H](CO)[C@@H](O)[C@H]2O)C(=O)N1 [dh-5-aza-C]
[5]; n 40, 5 g/M^2 over 1 day cl
  % Response: 20%
[6]; n 29, 1500 mg/M^2 over 5 days cl
  % Response: 17%
[6]; n 41, 1500 mg/M^2 over 5 days cl
  % Response: 17%

## Oc1ccc(C2NN=C(c3ccccc3)S2)cc1 (stereo not drawn) [(XVII)]
[1]
  IC50: 16.9 µM
[2]
  DNMT1 Inhibition (IC50 in μM): No Inhibition

## Nc1ncn([C@H]2C[C@H](O)[C@@H](CO)O2)c(=O)n1 [Compound 5-aza-dC, 5-aza-deoxycytidine]
[7]; n 24, 225 mg/M^2 over 10 days iv
  % Response: 8%
[8]
  % Response: 20%
[5]; n 18, 225 mg/M^2 over 1 day iv
  % Response: 0%
[9]
  % Response: 16%
[10]; n 42, 225 mg/M^2 over 1 day iv
  % Response: 0%

## Cn1c2ccccc2n2cc(-c3ccc([N+](=O)[O-])cc3)nc12 [(III)]
[1]
  IC50: > 200 µM
[2]
  DNMT1 Inhibition (IC50 in μM): No Inhibition

## Clc1ccc(C2NN=C(c3ccccc3)S2)cc1 (stereo not drawn) [(XXI)]
[1]
  IC50: 33.9 µM
[2]
  DNMT1 Inhibition (IC50 in μM): No Inhibition

## CCOc1ccc(Nc2nc(-c3ccccn3)cs2)cc1 [(XXV)]
[1]
  IC50: > 200 µM

## COc1cc(O)cc(Br)c1/C=N/Nc1nc2ccccc2s1 [(XVIII)]
[1]
  IC50: > 200 µM
[2]
  DNMT1 Inhibition (IC50 in μM): No Inhibition

## OC1(C(F)(F)F)CC(c2ccccc2)=NN1C(=S)c1ccccc1 (stereo not drawn) [(XX)]
[1]
  IC50: > 200 µM
[2]
  DNMT1 Inhibition (IC50 in μM): No Inhibition

## Nc1ncn([C@@H]2O[C@H](CO)[C@@H](O)[C@H]2O)c(=O)n1 [Compound 5-aza-C, 5-az-cytidine]
[7]; [12]
  % Response: 25%
[5]; n 5, 300-700 mg/M^2 over 8 days iv
  % Response: 40%
[10]; n 4, 275-850 mg/M^2 over 8 days sq
  % Response: 0%
[10]; n 6, 300-700 mg/M^2 over 10 days iv
  % Response: 33%
[10]; n 27, dose not given
  % Response: 4%
[11]; 1.6 mg/kg over 10 days iv
  % Response: 17%
[11]; [12]
  % Response: 25%
[11]; n 11, 300-700 mg/M^2 over 8 days iv
  % Response: 63%
[11]; n 31, 600 mg/M^2 over 10 days iv
  % Response: 6%

## COc1ccc(NC(=O)Nc2cccc3cccnc23)cc1 [(XXIV)]
[1]
  IC50: 2.81 µM

## Oc1ccc2ccccc2c1C1NN=C(c2ccccc2)S1 (stereo not drawn) [(XXII)]
[1]
  IC50: 0.61 µM
[2]
  DNMT1 Inhibition (IC50 in μM): No Inhibition
